Patent US20080026996A1, “Selective Vpac2 Receptor Reptide Agonists” (ELI LILLY AND COMPANY, priority 2004, published 2008)
Where a SMILES comes first, the peptide text is derived from it. Where no end group is shown, it is not given here. [ ]: non-standard residue; d: D form. The star is where a group is joined. Orn = NCCC[C@H](N)C(=O)O; Hexanoyl = CCCCCC(=O)*; Aib = CC(C)(N)C(=O)O; Mpa = O=C(O)CCS

Legend:
[1] = Rat serum stability studies (remaining active peptide by DiscoveRx cAMP on CHO-VPAC2 cells); type: in vitro ADME
Method: Store the aliquot with aprotinin at 4° C. Store the aliquot without aprotinin at 37° C. […] […] Incubate in room temperature for 30 minutes. Remove the supernatant. […] Incubate on the shaker (300 rpm) for 1 hour. Proceed as normal with the DiscoveRx kit. Include cAMP standards in column 12. Determine EC50 values from the cAMP assay data.

human VPAC2 = target: T1, human VPAC2 (Homo sapiens, UniProt P41587); assay: Alpha screen cAMP in vitro potency, human VPAC2 receptor; type: cell-based; details: cAMP generation; single result from two analyses performed in a single run; read-out: Human VPAC2 Receptor: Alpha Screen EC50
T1 construct: expressed in transfected cells
T1 sequence (P41587 24-438): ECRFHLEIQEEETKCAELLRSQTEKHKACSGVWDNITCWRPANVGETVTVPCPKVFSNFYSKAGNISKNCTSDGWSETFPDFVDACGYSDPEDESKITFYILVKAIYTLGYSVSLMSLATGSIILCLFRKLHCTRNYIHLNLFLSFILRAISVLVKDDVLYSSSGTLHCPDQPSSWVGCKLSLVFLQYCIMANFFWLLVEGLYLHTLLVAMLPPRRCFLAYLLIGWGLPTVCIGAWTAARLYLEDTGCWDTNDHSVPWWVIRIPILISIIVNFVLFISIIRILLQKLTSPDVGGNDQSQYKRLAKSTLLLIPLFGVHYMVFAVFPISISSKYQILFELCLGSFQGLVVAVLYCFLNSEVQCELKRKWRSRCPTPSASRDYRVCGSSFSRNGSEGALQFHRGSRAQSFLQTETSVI
Method in brief: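 This followed a 60 min stimulation of 50,000 enzyme-free-dissociated cells per point with acceptor beads in stimulation buffer.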

Row | Molecule | Rat Serum Stability (estimated purity in % after 18 hours) [1] [%] | EC50 (human VPAC2) [nM]
1 | CCCCCC(=O)N[C@@H](Cc1c[nH]cn1)C(=O)N[C@@H](CO)C(=O)N[C@@H](CC(=O)O)C(=O)N[C@@H](C)C(=O)N[C@H](C(=O)N[C@@H](Cc1ccccc1)C(=O)N[C@H](C(=O)N[C@@H](CC(=O)O)C(=O)N[C@@H](CC(N)=O)C(=O)N[C@@H](Cc1ccc(O)cc1)C(=O)N[C@H](C(=O)N[C@@H](CCCNC(=N)N)C(=O)N[C@@H](CC(C)C)C(=O)N[C@@H](CCCNC(=N)N)C(=O)NC(C)(C)C(=O)N[C@@H](CCC(N)=O)C(=O)N[C@H](C(=O)N[C@@H](C)C(=O)N[C@@H](C)C(=O)NC(C)(C)C(=O)N[C@@H](CCCCN)C(=O)N[C@@H](Cc1ccc(O)cc1)C(=O)N[C@@H](CC(C)C)C(=O)N[C@@H](CCC(N)=O)C(=O)N[C@@H](CO)C(=O)N[C@H](C(=O)N[C@@H](CCCCN)C(=O)N1CCC[C@H]1C(=O)N[C@@H](CCCCN)C(=O)NCC(=O)NCC(=O)N1CCC[C@H]1C(=O)N[C@@H](CO)C(=O)N[C@@H](CO)C(=O)NCC(=O)N[C@@H](C)C(=O)N1CCC[C@H]1C(=O)N1CCC[C@H]1C(=O)N1CCC[C@H]1C(=O)N[C@@H](CO)C(=O)O)[C@@H](C)CC)C(C)C)[C@@H](C)O)[C@@H](C)O)C(C)C [Agonist P350] (Hexanoyl-HSDAVFTDNYTRLR[Aib]QVAA[Aib]KYLQSIKPKGGPSSGAPPPS-OH; C-terminus assumed) | 25.83 | 0.13
2 | CCCCCC(=O)N[C@@H](Cc1c[nH]cn1)C(=O)N[C@@H](CO)C(=O)N[C@@H](CC(=O)O)C(=O)N[C@@H](C)C(=O)N[C@H](C(=O)N[C@@H](Cc1ccccc1)C(=O)N[C@H](C(=O)N[C@@H](CC(=O)O)C(=O)N[C@@H](CC(N)=O)C(=O)N[C@@H](Cc1ccc(O)cc1)C(=O)N[C@H](C(=O)N[C@@H](CCCN)C(=O)N[C@@H](CC(C)C)C(=O)N[C@@H](CCCNC(=N)N)C(=O)NC(C)(C)C(=O)N[C@@H](CCC(N)=O)C(=O)N[C@@H](CC(C)C)C(=O)N[C@@H](C)C(=O)N[C@@H](C)C(=O)NC(C)(C)C(=O)N[C@@H](CCCCN)C(=O)N[C@@H](Cc1ccc(O)cc1)C(=O)N[C@@H](CC(C)C)C(=O)N[C@@H](CCC(N)=O)C(=O)N[C@@H](CO)C(=O)N[C@H](C(=O)N[C@@H](CCCN)C(=O)N[C@@H](CC(N)=O)C(=O)N[C@@H](CCCN)C(=O)NCC(=O)NCC(=O)N1CCC[C@H]1C(=O)N[C@@H](CO)C(=O)N[C@@H](CO)C(=O)NCC(=O)N[C@@H](C)C(=O)N1CCC[C@H]1C(=O)N1CCC[C@H]1C(=O)N1CCC[C@H]1C(=O)N[C@@H](CO)C(=O)O)[C@@H](C)CC)[C@@H](C)O)[C@@H](C)O)C(C)C [Agonist P364] (Hexanoyl-HSDAVFTDNYT[Orn]LR[Aib]QLAA[Aib]KYLQSI[Orn]N[Orn]GGPSSGAPPPS-OH; C-terminus assumed) | 86.23 | 0.11
3 | [Mpa]HSDAVFTDNYTRLLAKLALQKYLQSIKNKRYGGPSSGAPPPS [Agonist P205] | 35.02 | 1.14
4 | CCCCCC(=O)N[C@@H](Cc1c[nH]cn1)C(=O)N[C@@H](CO)C(=O)N[C@@H](CC(=O)O)C(=O)N[C@@H](C)C(=O)N[C@H](C(=O)N[C@@H](Cc1ccccc1)C(=O)N[C@H](C(=O)N[C@@H](CC(=O)O)C(=O)N[C@@H](CC(N)=O)C(=O)N[C@@H](Cc1ccc(O)cc1)C(=O)N[C@H](C(=O)N[C@@H](CCCNC(=N)N)C(=O)N[C@@H](CC(C)C)C(=O)N[C@@H](CCCNC(=N)N)C(=O)N[C@@H](CCCNC(=N)N)C(=O)N[C@@H](CCC(N)=O)C(=O)N[C@H](C(=O)N[C@@H](C)C(=O)N[C@@H](C)C(=O)N[C@@H](CCCCN)C(=O)N[C@@H](CCCNC(=N)N)C(=O)N[C@@H](Cc1ccc(O)cc1)C(=O)N[C@@H](CC(C)C)C(=O)N[C@@H](CCC(N)=O)C(=O)N[C@@H](CO)C(=O)N[C@H](C(=O)N[C@@H](CCCNC(=N)N)C(=O)N[C@@H](CC(N)=O)C(=O)NCC(=O)NCC(=O)N1CCC[C@H]1C(=O)N[C@@H](CO)C(=O)N[C@@H](CO)C(=O)NCC(=O)N[C@@H](C)C(=O)N1CCC[C@H]1C(=O)N1CCC[C@H]1C(=O)N1CCC[C@H]1C(=O)N[C@@H](CO)C(=O)O)[C@@H](C)CC)C(C)C)[C@@H](C)O)[C@@H](C)O)C(C)C [Agonist P215] (Hexanoyl-HSDAVFTDNYTRLRRQVAAKRYLQSIRNGGPSSGAPPPS-OH; C-terminus assumed) | 0.08 | 0.09
5 | Hexanoyl-HSDAVFTDNYTRLRKQVAAKKALQSIKNKRYGGPSSGAPPPS [Agonist P229] | <5.00 | 2.6
6 | CCCCCC(=O)N[C@@H](Cc1c[nH]cn1)C(=O)N[C@@H](CO)C(=O)N[C@@H](CC(=O)O)C(=O)N[C@@H](C)C(=O)N[C@H](C(=O)N[C@@H](Cc1ccccc1)C(=O)N[C@H](C(=O)N[C@@H](CC(=O)O)C(=O)N[C@@H](CC(N)=O)C(=O)N[C@@H](Cc1ccc(O)cc1)C(=O)N[C@H](C(=O)N[C@@H](CCCNC(=N)N)C(=O)N[C@@H](CC(C)C)C(=O)N[C@@H](CCCNC(=N)N)C(=O)N[C@@H](CCCNC(=N)N)C(=O)N[C@@H](CCC(N)=O)C(=O)N[C@H](C(=O)N[C@@H](C)C(=O)N[C@@H](C)C(=O)N[C@@H](CCCNC(=N)N)C(=O)N[C@@H](CCCCN)C(=O)N[C@@H](Cc1ccc(O)cc1)C(=O)N[C@@H](CC(C)C)C(=O)N[C@@H](CCC(N)=O)C(=O)N[C@@H](CO)C(=O)N[C@H](C(=O)N[C@@H](CCCNC(=N)N)C(=O)N[C@@H](CC(N)=O)C(=O)NCC(=O)NCC(=O)N1CCC[C@H]1C(=O)N[C@@H](CO)C(=O)N[C@@H](CO)C(=O)NCC(=O)N[C@@H](C)C(=O)N1CCC[C@H]1C(=O)N1CCC[C@H]1C(=O)N1CCC[C@H]1C(=O)N[C@@H](CO)C(=O)O)[C@@H](C)CC)C(C)C)[C@@H](C)O)[C@@H](C)O)C(C)C [Agonist P216] (Hexanoyl-HSDAVFTDNYTRLRRQVAARKYLQSIRNGGPSSGAPPPS-OH; C-terminus assumed) | 0.06 | 0.11
7 | CCCCCC(=O)N[C@@H](Cc1c[nH]cn1)C(=O)N[C@@H](CO)C(=O)N[C@@H](CC(=O)O)C(=O)N[C@@H](C)C(=O)N[C@H](C(=O)N[C@@H](Cc1ccccc1)C(=O)N[C@H](C(=O)N[C@@H](CC(=O)O)C(=O)N[C@@H](CC(N)=O)C(=O)N[C@@H](Cc1ccc(O)cc1)C(=O)N[C@H](C(=O)N[C@@H](CCCN)C(=O)N[C@@H](CC(C)C)C(=O)N[C@@H](CCCNC(=N)N)C(=O)NC(C)(C)C(=O)N[C@@H](CCC(N)=O)C(=O)N[C@H](C(=O)N[C@@H](C)C(=O)N[C@@H](C)C(=O)NC(C)(C)C(=O)N[C@@H](CCCCN)C(=O)N[C@@H](Cc1ccc(O)cc1)C(=O)N[C@@H](CC(C)C)C(=O)N[C@@H](CCC(N)=O)C(=O)N[C@@H](CO)C(=O)N[C@H](C(=O)N[C@@H](CCCN)C(=O)N[C@@H](CC(N)=O)C(=O)N[C@@H](CCCN)C(=O)NCC(=O)NCC(=O)N1CCC[C@H]1C(=O)N[C@@H](CO)C(=O)N[C@@H](CO)C(=O)NCC(=O)N[C@@H](C)C(=O)N1CCC[C@H]1C(=O)N1CCC[C@H]1C(=O)N1CCC[C@H]1C(=O)N[C@@H](CO)C(=O)O)[C@@H](C)CC)[C@@H](C)CC)[C@@H](C)O)[C@@H](C)O)C(C)C [Agonist P365] (Hexanoyl-HSDAVFTDNYT[Orn]LR[Aib]QIAA[Aib]KYLQSI[Orn]N[Orn]GGPSSGAPPPS-OH; C-terminus assumed) | 91.13 | 0.13
8 | CCCCCC(=O)N[C@@H](Cc1c[nH]cn1)C(=O)N[C@@H](CO)C(=O)N[C@@H](CC(=O)O)C(=O)N[C@@H](C)C(=O)N[C@H](C(=O)N[C@@H](Cc1ccccc1)C(=O)N[C@H](C(=O)N[C@@H](CC(=O)O)C(=O)N[C@@H](CC(N)=O)C(=O)N[C@@H](Cc1ccc(O)cc1)C(=O)N[C@H](C(=O)N[C@@H](CCCNC(=N)N)C(=O)N[C@@H](CC(C)C)C(=O)N[C@@H](CCCNC(=N)N)C(=O)NC(C)(C)C(=O)N[C@@H](CCC(N)=O)C(=O)N[C@H](C(=O)N[C@@H](C)C(=O)N[C@@H](C)C(=O)NC(C)(C)C(=O)N[C@@H](CCCCN)C(=O)N[C@@H](Cc1ccc(O)cc1)C(=O)N[C@@H](CC(C)C)C(=O)N[C@@H](CCC(N)=O)C(=O)N[C@@H](CO)C(=O)N[C@H](C(=O)N[C@@H](CCCCN)C(=O)NC(C)(C)C(=O)NCC(=O)NCC(=O)N1CCC[C@H]1C(=O)N[C@@H](CO)C(=O)N[C@@H](CO)C(=O)NCC(=O)N[C@@H](C)C(=O)N1CCC[C@H]1C(=O)N1CCC[C@H]1C(=O)N1CCC[C@H]1C(=O)N[C@@H](CO)C(=O)O)[C@@H](C)CC)C(C)C)[C@@H](C)O)[C@@H](C)O)C(C)C [Agonist P355] | 35.94 | 0.1
